Assay results reported in US9938240B2, “Fluorinated derivatives of 3-hydroxypyridin-4-ones” (Apotex Technologies Inc., priority 2009, dated 2018).

Tests used:
[1] = Oral cassette dosing PK/BBB studies; assay type: in vivo, male Sprague-Dawley rats; settings: oral cassette dosing, male Sprague-Dawley rats; for AUC brain* / AUC: AUC normalized to 1 mg/kg dose; for Kp / AUC: rat; for Kp: brain and plasma, read-out: AUC brain/AUC plasma; for AUC: plasma
Procedure: In-vivo pharmacokinetic (PK) and blood brain barrier (BBB) studies were conducted in male Sprague-Dawley rats using cassette dosing via oral administration. […] No. 15, pp. 652-658.

[2] = Distribution coefficient determination, D7.4 (1-octanol / K2HPO4 buffer); assay type: physicochemical; settings: 1-octanol / K2HPO4 buffer 50 mM pH 7.4; for logD: read-out: Log D7.4
Procedure: K2HPO4 buffer (50 mM, pH=7.4) and 1-octanol were used as the aqueous phase and the organic phase, respectively. The K2HPO4 buffer and 1-octanol were mixed, and pre-saturated with each other before use.
In a typical experiment, an aqueous solution of Apo6995 (3-hydroxy-2-methyl-1-(2,2,2-trifluoroethyl)pyridin-4(1H)-one) was prepared by weighing out 3 mg of the compound into a 10-mL test-tube. It was then mixed with K2HPO4 buffer (2 mL) and sonicated for 30 minutes with frequent vortexing. The solution was then filtered through HPLC syringe filter (4 mm PVDF syringe filter 0.45 μM) to obtain the aqueous solution.
One mL of this aqueous solution was pipetted out into another 10-mL test-tube and mixed with 1 mL of 1-octanol. The mixture was then vortexed for 1 hour. The solution was centrifuged at 2000 rpm for 10 minutes. A small amount of the lower aqueous layer was carefully pipetted out and analyzed by HPLC to obtain the peak height (HF). The distribution coefficient, D7.4, was calculated using the following equation: D7.4=(HI−HF)/HF.

[3] = test system: SH-SY5Y human neuroblastoma cells; settings: for CC2 (cytotoxic concentration): H2O2-treated cells, viability below 80%; for CC1 (cytotoxic concentration): absence of H2O2, viability below 80%
Source text: Hydrogen peroxide (H2O2) is a major ROS (reactive oxidative species), which causes oxidative stress, and can induce apoptosis in many different cell types. One of the CNS drug design strategies is to use compounds with antioxidant properties as a possible treatment of both acute and chronic neurodegenerative diseases (Kang et al. Bioorganic & Medicinal Chemistry Letters, 2004, 14, 2261-2264). This involves testing the compounds of this invention for their protective effect against oxidative stress-induced cell death in SH-SY5Y human neuroblastoma cells. SH-SY5Y human neuroblastoma cells were cultured in DMEM (ATCC)/F12 (Cellgro) with 10% FBS. The cells were plated at 30,000 cells/cm^2 and grown for 1 day in the regular culture media prior to compound addition. Cells were routinely treated with the test compound, at a pre-determined range of concentrations, in the presence or absence of 50 μM hydrogen peroxide in a basal medium containing no FBS for 16-22 h. Cell viability was then measured using the routine MTT method (Mosmann, T., Rapid Colorimetric Assay for Cellular Growth and Survival: Application to Proliferation and Cytotoxicity Assays”. J. Immunol. Meth. 1983, 65, 55-63).
For data analysis, cell viability relative to control not treated with either H2O2 or the test compound, was plotted against the compound concentration. […] Cytotoxicity of the test compound was assessed in the absence of hydrogen peroxide.

[4] = test system: human neuroblastoma MC-65 cells; test: cells; settings: for EC100 / minimal effective concentration: Homo sapiens, MC65, 48 h; for EC100: read-out: EC100 (maximum effective concentration); for minimal effective concentration: read-out: TH (threshold protective concentration); for CC2 (cytotoxic concentration): MC-65, cultured without tetracycline; for CC2 (cytotoxic concentration) / CC1 (cytotoxic concentration): viability below 80%; for CC1 (cytotoxic concentration): MC-65, presence of TET
Procedure: In this assay, human neuroblastoma cells (MC-65 cells) are genetically engineered to conditionally express amyloid β peptide (Aβ). The Aβ production is suppressed by tetracycline (TET+) presence in culture medium, and its production is activated when TET is withdrawn (TET−). The activation of Aβ production results in cell death “MC-65 suicide”.
Protective effect of compounds against edogenously produced amyloid beta (Aβ) was assessed in human neuroblastoma MC-65 cells. MC-65 cells have been stably transformed to conditionally express high levels of a partial amyloid precursor (AP) fusion protein (Bryce Sopher et al., Brain Res Mol Brain Res. 1994, 207-17.). This protein is further proteolitically processed in the cells to form a set of AP-derived Aβ peptides. […] Activity of the promoter is tightly regulated by the presence of the antibiotic tetracycline (TET) in the culture medium. In the presence of TET (TET+), the promoter is in the basal state and no amyloid beta peptide is synthesized. In the absence of TET (TET−) the promoter is in induced state, resulting in the accumulation of Aβ peptides in the cells, degenerative changes in cell morphology and decreased survival.
Transfected human neuroblastoma cells (MC-65) were cultured in DMEM (ATCC) supplemented with non-essential amino acids and 10% FBS (VWR) in the presence of TET (1 μg/mL). For the experiment, the cells were plated at 35,000 cells/cm^2 and grown for 1 day in the regular culture media prior to compound addition. On the day of the assay, culture supernatant was removed from the wells and cells were thoroughly washed once with the compound incubation matrix containing no FBS and no TET. MC-65 cells were treated with a test compound at pre-determined range of concentrations in a basal medium containing no FBS and in the absence or presence of 1 μg/mL TET for approximately 48 h. Cell viability was then measured using the MTT method.
For data analysis, cell viabilities relative to the control not treated with a test compound and maintained in the presence of TET were plotted against the compound concentration. […] Cytotoxicity of the test compound was assessed in the cells maintained in the presence of TET.

Compound	AUC brain* [1] [µg·h/mL]	Kp [1]	AUC [1] [µg·h/mL]	D7.4 [2]	logD [2]	CC2 (cytotoxic concentration) [3] [µM]	CC1 (cytotoxic concentration) [3] [µM]	EC100 [4] [µM]	minimal effective concentration [4] [µM]	CC2 (cytotoxic concentration) [4] [µM]	CC1 (cytotoxic concentration) [4] [µM]	Log D7.4 [2]
Cc1c(O)c(=O)ccn1CC(F)(F)F [Apo6995, 3-hydroxy-2-methyl-1-(2,2,2-trifluoroethyl)pyridin-4(1H)-one]	0.30	1.2	0.26	2.51	0.4	320	320	20	0.1	80	80	
Cc1c(Cl)c(=O)c(O)c(CC(F)(F)F)n1C [Apo7040, 3-chloro-5-hydroxy-1,2-dimethyl-6-(2,2,2-trifluoroethyl)pyridin-4(1H)-one]				8.76	0.94	>640	160	40	1	80	40	
CN(C)C(c1c(O)c(=O)c(Cl)cn1C)C(F)(F)F (centres unmarked) [Apo7060, 5-chloro-2-[1-(dimethylamino)-2,2,2-trifluoroethyl]-3-hydroxy-1-methylpyridin-4(1H)-one]				4.93	0.69	>640	80	10	1	20	40	
Cc1cc(=O)c(O)c(CN(C)C)n1CC(F)(F)F [Apo7065, 2-[(dimethylamino)methyl]-3-hydroxy-6-methyl-1-(2,2,2-trifluoroethyl)pyridin-4(1H)-one]				4.93	0.69	>640	40					
Cn1cc(Cl)c(=O)c(O)c1CC(F)(F)F [Apo7066, 5-chloro-3-hydroxy-1-methyl-2-(2,2,2-trifluoroethyl)pyridin-4(1H)-one]				4.69	0.67	160	160	10	0.1	80	80	
Cc1c(O)c(=O)ccn1CC(F)F [Apo7069, 1-(2,2-difluoroethyl)-3-hydroxy-2-methylpyridin-4(1H)-one]				0.66		>640	80	40	0.1	80	80	−0.18
Cn1ccc(=O)c(O)c1CC(F)F [Apo7080, 2-(2,2-difluoroethyl)-3-hydroxy-1-methylpyridin-4(1H)-one]	0.7	0.76	0.92			>640	40	10	0.1	40	40	
Cc1cc(=O)c(O)c(CN(C)C)n1CC(F)F [Apo7083, 1-(2,2-difluoroethyl)-2-[(dimethylamino)methyl]-3-hydroxy-6-methylpyridin-4(1H)-one]				1.70	0.23			10	0.1	40	40	
Cn1ccc(=O)c(O)c1C(C(F)F)N1CCCCC1 (centres unmarked) [Apo7319, 2-(2,2-difluoro-1-(piperidin-1-yl)ethyl)-3-hydroxy-1-methylpyridin-4(1H)-one]						320	320	10	1	40	40	
Cc1cc(=O)c(O)c(C(N2CCOCC2)C(F)(F)F)n1C (centres unmarked) [Apo7333, 3-hydroxy-1,6-dimethyl-2-(2,2,2-trifluoro-1-morpholinoethyl)pyridin-4(1H)-one]						320	320	10	1	40	20	
Cc1cc(=O)c(O)c(C(N2CCN(Cc3ccccc3)CC2)C(F)(F)F)n1C (centres unmarked) [Apo7334, 2-(1-(4-benzylpiperazin-1-yl)-2,2,2-trifluoroethyl)-3-hydroxy-1,6-dimethylpyridin-4(1H)-one]						320	40	10	1	20	10	
Cc1cc(=O)c(O)c(C(N2CCN(c3ccccc3)CC2)C(F)(F)F)n1C (centres unmarked) [Apo7335, 3-hydroxy-1,6-dimethyl-2-(2,2,2-trifluoro-1-(4-phenylpiperazin-1-yl)ethyl)pyridin-4(1H)-one]						80	80	10	1	20	20	
Cc1cc(=O)c(O)c(C(N2CCN(c3ccccn3)CC2)C(F)(F)F)n1C (centres unmarked) [Apo7336, 3-hydroxy-1,6-dimethyl-2-(2,2,2-trifluoro-1-(4-(pyridin-2-yl)piperazin-1-yl)ethyl)pyridin-4(1H)-one]						80	80	10	1	20	10	
Cc1cc(=O)c(O)c(CN2CCOCC2)n1CC(F)(F)F [Apo7434, 3-hydroxy-6-methyl-2-(morpholinomethyl)-1-(2,2,2-trifluoroethyl)pyridin-4(1H)-one]						320	320	20	1	40	40	
Oc1c(I)cc(Cl)c2cccnc12 [Clioquinol, reference compound]	0.042	1.5	0.028									
